According to ChEMBL document CHEMBL1155607, “Antigiardial activity of isoflavones from Dalbergia frutescens bark” (J Nat Prod, 2000):
≈ marks a conversion by molar mass, not a printed value. Calls of active or inactive are those of the source. The calls are words filed in the database; no cut-off is given here.

Assays:
Giardia intestinalis [1] = experiment: […] activity against Giardia intestinalis ATCC 30888 at 10 ug/mL after 48 hrs by XTT assay; type: functional, organism-based; details: Giardia duodenalis
Giardia intestinalis [2] = experiment: Antifungal activity against Giardia intestinalis; type: functional, organism-based; details: Giardia duodenalis
Giardia intestinalis [3] = experiment: […] activity against Giardia intestinalis ATCC 30888 after 48 hrs by XTT assay; type: functional, organism-based; details: Giardia duodenalis
Giardia intestinalis [4] = experiment: […] activity against Giardia intestinalis infected in C57B mouse assessed as intestinal motile trophozoites count at 10 mg/day administered 3 day postinfection for 4 days; type: functional, Giardia duodenalis
Mus musculus [5] = experiment: Toxicity in C57B mouse assessed as induction of adverse effect on gross behavior at 40 mg/kg, po administered once daily for 3 days; type: organism-based; set-up: dose 40 mg/kg, route oral; details: in vivo, 72 h
Vero = experiment: Cytotoxicity against african green monkey Vero cells up to 50 ug/mL after 48 hrs by neutral red dye assay; type: cell-based; details: chlorocebus sabaeus
Giardia intestinalis [6] = experiment: […] activity against Giardia intestinalis infected in C57B mouse assessed as increase in disease cure rate at 10 mg/day administered 3 day postinfection for 4 days; type: functional, organism-based; details: Giardia duodenalis
Mus musculus [7] = experiment: Toxicity in C57B mouse assessed as induction of adverse effect on appearance at 40 mg/kg, po administered once daily for 3 days; type: organism-based; set-up: dose 40 mg/kg, route oral; details: in vivo, 72 h
Giardia intestinalis [8] = experiment: […] activity against Giardia intestinalis ATCC 30888 assessed as impairment of parasite motility after 2 hrs; type: functional, organism-based; details: Giardia duodenalis
Giardia intestinalis [9] = experiment: […] activity against Giardia intestinalis ATCC 30888 assessed as impairment of parasite motility after 4 hrs; type: functional, organism-based; details: Giardia duodenalis
Mus musculus [10] = experiment: Toxicity in C57B mouse assessed as induction of adverse grooming behavior at 40 mg/kg, po administered once daily for 3 days; type: organism-based; set-up: dose 40 mg/kg, route oral; details: in vivo, 72 h
Trichomonas [11] = experiment: Antimicrobial activity against Trichomonas up to 25 ug/mL; type: functional, organism-based
Mus musculus [12] = experiment: Toxicity in C57B mouse assessed as induction of adverse feeding behavior at 40 mg/kg, po administered once daily for 3 days; type: organism-based; set-up: dose 40 mg/kg, route oral; details: in vivo, 72 h
Mus musculus [13] = experiment: Toxicity in C57B mouse assessed as adverse effect on body weight at 40 mg/kg, po administered once daily for 3 days; type: organism-based; set-up: dose 40 mg/kg, route oral; details: in vivo, 72 h
Giardia intestinalis [14] = experiment: […] activity against Giardia intestinalis infected in C57B mouse assessed as decrease in intestinal parasite load at 10 mg/day administered 3 day postinfection for 4 days; type: functional, organism-based; details: Giardia duodenalis
Trichomonas [15] = experiment: Antimicrobial activity against Trichomonas; type: functional, organism-based

Structure (SMILES): COc1cc2c(=O)c(-c3ccc(O)cc3)coc2cc1O
- Activity (Giardia intestinalis [1]): inactive

Structure (SMILES): COc1ccc(-c2coc3cc(O)c(OC)cc3c2=O)cc1O
- Activity (Giardia intestinalis [1]): inactive

Structure (SMILES): Oc1cc(O)c2c(c1)O[C@H](c1ccc(O)c(O)c1)[C@H](O)C2 [(-)-EPICATECHIN]
- IC50 (Giardia intestinalis [2]): < 1 µg/mL

Structure (SMILES): COc1ccc(-c2coc3cc(O)cc(O)c3c2=O)cc1 [BIOCHANIN]
- IC50 (Giardia intestinalis [3]): 3.5 µg/mL (≈ 12.3 µM)

Structure (SMILES): COc1ccc(-c2coc3cc(O)c(OC)cc3c2=O)cc1 [CASTANIN]
- IC50 (Giardia intestinalis [3]): > 5 µg/mL

Structure (SMILES): COc1cc2c(cc1-c1coc3cc(O)ccc3c1=O)OCO2 [CUNEATIN]
- Activity (Giardia intestinalis [1]): inactive
- IC50 (Giardia intestinalis [3]): > 10 µg/mL

Structure (SMILES): O=c1c(-c2ccc(O)cc2)coc2cc(O)ccc12 [DAIDZEIN]
- IC50 (Giardia intestinalis [3]): 3.75 µg/mL (≈ 14.7 µM)

Structure (SMILES): COc1ccc(-c2coc3cc(O)ccc3c2=O)cc1 [FORMONONETIN]
- Activity (Giardia intestinalis [4]): 0.1
- Activity (Mus musculus [5]): Non-toxic
- Activity (Vero): Non-toxic
- Activity (Giardia intestinalis [6]): Active
- Activity (Mus musculus [7]): Non-toxic
- IC50 (Giardia intestinalis [8]): < 1 µg/mL
- IC50 (Giardia intestinalis [9]): < 1 µg/mL
- Activity (Mus musculus [10]): Non-toxic
- Activity (Trichomonas [11]): Active
- Activity (Mus musculus [12]): Non-toxic
- Activity (Mus musculus [13]): Non-toxic
- Activity (Giardia intestinalis [14]): Active
- IC50 (Giardia intestinalis [3]): 0.03 µg/mL (≈ 0.112 µM)

Structure (SMILES): COc1cc2c(=O)c(-c3ccc4c(c3)OCO4)coc2cc1O [FUJIKINETIN]
- IC50 (Giardia intestinalis [3]): 1.5 µg/mL (≈ 4.8 µM)

Structure (SMILES): O=c1c(-c2ccc(O)cc2)coc2cc(O)cc(O)c12 [GENISTEIN]
- IC50 (Giardia intestinalis [3]): > 5 µg/mL

Structure (SMILES): Cc1ncc([N+](=O)[O-])n1CCO [METRONIDAZOLE]
- Activity (Giardia intestinalis [8]): inactive
- Activity (Giardia intestinalis [9]): inactive
- Activity (Trichomonas [15]): Active
- IC50 (Giardia intestinalis [3]): 0.1 µg/mL (≈ 0.584 µM)

Structure (SMILES): O=c1c(-c2ccc3c(c2)OCO3)coc2cc(O)ccc12 [PSEUDOBAPTOGENIN]
- IC50 (Giardia intestinalis [3]): 0.56 µg/mL (≈ 1.98 µM)
